In the OligoGym collection one finds remaining target (mRNA or protein) (fraction of control) data, which are given here for 117 sequences.

Values joined by “and” are separate entries in the source; they are usually repeats but may differ in a detail not shown here. Equal entries are not always repeated. These antisense oligonucleotides have a phosphorothioate backbone; sugars and methylation of C are not fully specified. Some results are limits rather than exact numbers.
Note: test concentration or dose not given here.

In the first data set the target is ICAM1. As to conditions: ASO.
For GGGGCGGTGCTGCTTTCCCGG, the remaining target (mRNA or protein) (fraction of control) is not below 1. GCCCATTGCAGGGCCAGGGC registered a remaining target (mRNA or protein) (fraction of control) of 0.

As to GGAAACCTCGCGC, the remaining target (mRNA or protein) (fraction of control) was 0.91. On the same count and under the same terms, as for GGGCGCGTGATCCTTATAGC, the figure is 0.8. Same read-out and setting: for CTCATCCAGCAGGCTCAGGG the value was 0.75; for GCTTTCCCGGAAACCTCGCGC, 0.48; for CATAGCGAGGCTGAGGTTGC, 0.39. On the same count and under the same terms, as for GACACTCAATAAATAGCTGGT, the figure is 0.5; as for CGATGGGCAGTGGGAAAG, 0.95; as for TGCCAGTCCACATAGTGTTT, 0.25. Regarding CCCCCACCACTTCCCCTCTCA, the remaining target (mRNA or protein) (fraction of control) was found to be 0.07. The sequence TGCCCATCAGGGCAGTTTGA came in with a remaining target (mRNA or protein) (fraction of control) of 0.4.

Take GGCAGAAATGTATGTGGGTGG: the remaining target (mRNA or protein) (fraction of control) was found to be 0.68.

Regarding ATAGCGAGGC, the remaining target (mRNA or protein) (fraction of control) was not below 1. The same measure, in the same setting: as for CCCCCACCACTTCCCCTCTC, the figure is 0; as for CCAGAGGAAGTGGCTGAGGG, 0.35; as for TGCTTACCCTCCCACAGCAG, 0.1. On the same count and under the same terms, as for GGGTTGAAGCCATTGCAGGG, the figure is 0.45. The same measure, in the same setting: for CTCTGAGTAGCAGAGG the value was 0.76; for TGATCCTTTATAGCGCTAGCC, 0.9; for AGCTGCGCTGCTACCTGCAC, 0.25. Take CCTGTCCCGGGATAGGTTCA: the remaining target (mRNA or protein) (fraction of control) turned out to be 0.4. On the same count and under the same terms, as for CCATAGCGAGGC, the figure is not below 1; as for CTCTGAGTAGCAGAGGAGCTC, 0.17. In the case of CTATGGAGGGCCACTTC, the remaining target (mRNA or protein) (fraction of control) is 0.39.

TTGGGACAATGTCTCAGCTT had a remaining target (mRNA or protein) (fraction of control) of 0.25. Regarding GAGTAGCAGAGGAGC, the remaining target (mRNA or protein) (fraction of control) is 0.61.

The sequence GATGCTACACATGTC came in with a remaining target (mRNA or protein) (fraction of control) of 0.58. In turn, TGGGAGCCATAGCGAGGC had a remaining target (mRNA or protein) (fraction of control) of 0.38. On the same count and under the same terms, as for GGAGCCATAGCGAGGC, the figure is 0.35; as for CCCGGAAACCTCGCGC, 0.88. Still for that read-out and setting: as for TGGGAGCCATAGCGAG, the figure is 0.55; as for TGCATCCCCCAGGCCACCAT, 0. Same read-out and setting: for CGGGGGCTGCTGGGAGC the value was 0.76. CACATGTCTATGGAGGG had a remaining target (mRNA or protein) (fraction of control) of 0.89.

In the case of GAGGAGCTCAGCGTCGACTG, the remaining target (mRNA or protein) (fraction of control) was 0.83 and ≥ 1. On the same count and under the same terms, for AACCTCGCGC the value was 0.96; for ACACATACACACACACACACA, 0.54. On the same count and under the same terms, for TCTGAGTAGCAGAGGAGCTCA the value was 0.3; for CTGAGGTTGC, 0.95; for GCTTTCCCGGAAA, 0.82. Still for that read-out and setting: for GGAGCTCAGCGTCGA the value was 0.85; for GGGCCACTTCTTCTGTAA, 0.33. GGCTGAGGTTG: the remaining target (mRNA or protein) (fraction of control) was 0.9.

The next data set concerns the target VCAM1. As to conditions: ASO.
On to AACTCCTCCAGTTCTCTCATC, for which the remaining target (mRNA or protein) (fraction of control) came out at 0.12. Turning to CGTGATGAAGAAAATAGTGGTT, the remaining target (mRNA or protein) (fraction of control) was determined as 0.49. In turn, CCTGGGAGGGTATTC gave a remaining target (mRNA or protein) (fraction of control) of 0.39. CAGCCTGCCTTACTGTGGGC registered a remaining target (mRNA or protein) (fraction of control) of 0.67.

Regarding TTACCATTGACATAAAGTGTT, the remaining target (mRNA or protein) (fraction of control) came out at 0.52.

In turn, CCTCCAGTTCTCTC had a remaining target (mRNA or protein) (fraction of control) of 0.32. GCCTGGGAGGGTATTCAGCT returned a remaining target (mRNA or protein) (fraction of control) of 0.58. In the case of GGCCACATTGGGAAAGTTGC, the remaining target (mRNA or protein) (fraction of control) worked out at 0.29. CCTGAAGCCAGTGAGGCCCG displayed a remaining target (mRNA or protein) (fraction of control) of 0.42. Sequence CATCTCGATTTCTGG showed a remaining target (mRNA or protein) (fraction of control) of 0.47. For GCAATCTTGCTATGGCATAA, the remaining target (mRNA or protein) (fraction of control) amounted to 0.48. On the same count and under the same terms, as for ACCTGTGTGTGCCTGGGAGGG, the figure is 0.26. As to CTTGAACAATTAATTCCACCT, the remaining target (mRNA or protein) (fraction of control) worked out at 0.37. Still for that read-out and setting: for CCACCACTCATCTCG the value was 0.26; for TTTAAGCAATCTTGCTATGGC, 0.81. Still for that read-out and setting: as for TGAACATATCAAGCATTAGC, the figure is 0.53; as for CTCTCATCTTGATGGC, 0.55; as for CCCAGGCATTTTAAG, 0.78. CGACCATCTTCCCAGGCATTT registered a remaining target (mRNA or protein) (fraction of control) of 0.2. Same read-out and setting: for GGTATTCAGCTCCTGAAG the value was 0.69. Same read-out and setting: as for GGCATTTTAAGTTGCTGTCG, the figure is 0.34; as for AACCCAGTGCTCCCTTTGCT, 0.21; as for CACGAGGCCACCACTCATCTC, 0.05. Still for that read-out and setting: for TTTGTGTCCCACCTG the value was 0.1. Take CTTTGACTTCTTGCTCACAGC: the remaining target (mRNA or protein) (fraction of control) amounted to 0.07. CCCGGCATCTTTACAAAACC gave a remaining target (mRNA or protein) (fraction of control) of 0.45.

CGAGGCCACCACTC showed a remaining target (mRNA or protein) (fraction of control) of 0.16. Turning to CGATGCAGATACCGCGGAGT, the remaining target (mRNA or protein) (fraction of control) turned out to be 0.37. On the same count and under the same terms, as for CCCTTATTTGTGTCCC, the figure is 0.37. The same measure, in the same setting: as for GCCTGGGAGGGTATTCAGCTC, the figure is 0.3; as for CCTGAAGCCAGTGAGG, 0.61. Same read-out and setting: for CCCAGGCATTTTAAGTTGCTG the value was 0.33; for CCTGTGTGTGCCTGGGAGGG, 0.88. Sequence AACCCTTATTTGTGTCCCACC yielded a remaining target (mRNA or protein) (fraction of control) of 0.09.

GCCAGTGAGGCCCG: the remaining target (mRNA or protein) (fraction of control) is 0.35. Still for that read-out and setting: for CATCTTCCCAGGCAT the value was 0.45; for CAGATCAGGGAACTCCTC, 0.55; for CCCATTCACGAGGCCACC, 0.11. Still for that read-out and setting: for ACGACCATCTTCCC the value was 0.51; for GGTTCCAAAACCCTT, 0.42. Same read-out and setting: as for AACATCTCCGTACCATGCCA, the figure is 0.25; as for CTGTGTGTCCTGTCTCCGCT, 0.27.

Sequence GTCTTTGTTGTTTTCTCTTCC yielded a remaining target (mRNA or protein) (fraction of control) of 0.41.

The next data set concerns the target TNF. The settings on record: ASO.
The sequence AGAGCCACAATTCCCTTTCTA showed a remaining target (mRNA or protein) (fraction of control) of 0.2. The same measure, in the same setting: as for CTGGTCTTTCCACGTCCCATT, the figure is 0.17; as for AGTGAGTTCCGAAAGCCCATT, 0.94.

Sequence GAAGCCTCCCCGCTCTTTGCC showed a remaining target (mRNA or protein) (fraction of control) of 0.25. Regarding GTTTCCCCTCCATCTCCCTCC, the remaining target (mRNA or protein) (fraction of control) was 0.26.

Consider GTCGCCTCACAGAGCAATGAC, for which the remaining target (mRNA or protein) (fraction of control) was not below 1. For TTGCTGTTCTCCCTCCTGGCT, the remaining target (mRNA or protein) (fraction of control) amounted to 0.15. Same read-out and setting: as for GGGATAGCTGGTAGTTTAG, the figure is not below 1; as for GCTGGAAGACTCCTCCCAGGT, 0.35; as for ACACTTACTGAGTGTGAGGGT, not below 1.

Turning to ACTTTCCCAGCAGGTATTTGG, the remaining target (mRNA or protein) (fraction of control) is 0.88. GCAGCCTTGTCCCTTGAAGAG had a remaining target (mRNA or protein) (fraction of control) of 0.73. The sequence CCGTGCTCATGGTGTCCTTTC displayed a remaining target (mRNA or protein) (fraction of control) of 0.51.

TCCACTCCCCCGATCCACTCA yielded a remaining target (mRNA or protein) (fraction of control) of 0.11.

In the case of CTTGAGCTCAGCTCCCTCAGG, the remaining target (mRNA or protein) (fraction of control) turned out to be 0.45. As to GGTCTCCCTCCCCAACTCTCC, the remaining target (mRNA or protein) (fraction of control) came out at 0.18.

GCCTGAAGACAGCTTCCCAAC had a remaining target (mRNA or protein) (fraction of control) of 0.24.

In the case of CAGTCACGGCTCCCGTGGG, the remaining target (mRNA or protein) (fraction of control) came to 0.91. With CCTCGCTGAGTTCTGCCGGCT, the remaining target (mRNA or protein) (fraction of control) was found to be 0.99.

CCTATTCCCTTTCCTCCCAAA showed a remaining target (mRNA or protein) (fraction of control) of 0.14. Take TAGACGATAAAGGGGTCAGAG: the remaining target (mRNA or protein) (fraction of control) is not below 1.

On to AATAATAAATAATAAATAAAT, for which the remaining target (mRNA or protein) (fraction of control) is not below 1. Take TTCTTGCCCTCCCTCCCTACT: the remaining target (mRNA or protein) (fraction of control) turned out to be 0.12.

GGTTCCGTAAGGAAGGCTGG showed a remaining target (mRNA or protein) (fraction of control) of 0.94. The same measure, in the same setting: for GGGAAATTCCCAGGACCAGGG the value was not below 1; for AAAGCTTTAAGTCCCCCGCCC, 0.25; for GGCACTCACCTCCTCCTTGTT, 0.94. Sequence TATCTCCCTCGTCTCCCATCT had a remaining target (mRNA or protein) (fraction of control) of 0.27.

Turning to CCTCTTTCCCTTACCCTCCTG, the remaining target (mRNA or protein) (fraction of control) is 0.1. The same measure, in the same setting: as for CCCTTAGGTTTCCCAGCAAGC, the figure is 0.38.
